In the assay the test system is platelet aggregation. In words: In vitro anti-platelet test: inhibition of arachidonic acid-induced platelet aggregation in platelet-rich plasma (Born's turbidimetric method). The assay is classed as cell-based, male Japanese white rabbits. To be noted: Oryctolagus cuniculus, 5 min, rabbit PRP, 37° C., read-out: Percentage inhibition of platelet aggregation; for inhibition at 50 µg/mL: 50 μg/ml; for inhibition at 100 µg/mL: 100 μg/ml; for inhibition at 10 µg/mL: 10 μg/ml; for inhibition at 25 µg/mL: 25 μg/ml. The method, then: The anti-platelet aggregating activity of the compounds of the present invention was determined by Born's turbidimetric method (G.V.R. Born, Nature, No. 4832, Jun. 9, 1962, 927-929) using an aggregometer (NKK Hema Tracer 1, PAT-4M, NKK Inc. Japan).
PRP was prepared from male Japanese white rabbits weighing 2.3-4.1 kg. Blood was drawn into syringes containing 3.8% sodium citrate (1/10 volume) and centrifuged at 1000 r.p.m. for 10 min. at room temperature. Platelet poor plasma (PPP) was obtained from the supernatant fraction of the residual blood by centrifugation at 3000 r.p.m. for 10 min. The aggregation (%) was calculated against the turbidity of PPP, which was designated as 100%. 1.2. In vitro anti-platelet test
A 200 μl volume of PRP was placed in the cuvette of the aggregometer and incubated at 37° C. To the cuvette was added 25 μl of 10% methanol solution in physiological saline as a solvent or 25 μl of test drug solution dissolved in the solvent in a predetermined concentration (μg/ml) indicated in Table 2, which was stirred and incubated. 5 min. after, platelet aggregation was induced by the addition of 25 μl of 10^-2 M arachidonic acid. Changes in the percentage of aggregation was recorded on a multirecorder (T626-DS, NKK Inc., Japan). 1-(4' -Methoxybenzoyl)-2-pyrrolidinone (aniracetam) was used as a control compound.
2. Result The percentage inhibition (I) of platelet aggregation by a test drug was calculated from the following equation: […]
in which A is the percentage maximum aggregation for addition of the drug and B is the percentage maximum aggregation for no addition of the drug.

Broadly, the inhibition is the relative decrease from the control value, in per cent.

For `COc1ccc(C(=O)N2CCCC2=O)cc1` [Aniracetam, 1-(4' -Methoxybenzoyl)-2-pyrrolidinone, reference compound], the inhibition at 50 µg/mL worked out at 0.4% and the inhibition at 100 µg/mL turned out to be 4.1%.
As to `COc1ccccc1OC(=O)N1CCCC1=O` [Compound No. 2, 1-(2'-Methoxyphenoxycarbonyl)-2-pyrrolidinone], the inhibition at 10 µg/mL was 40.9%, the inhibition at 25 µg/mL came to 69.8%, the inhibition at 50 µg/mL stood at 81.6% and the inhibition at 100 µg/mL is 96.2%.
As for `COc1cccc(OC(=O)N2CCCC2=O)c1` [Compound No. 3, 1-(3'-Methoxyphenoxycarbonyl)-2-pyrrolidinone], the inhibition at 50 µg/mL is 8.5% and the inhibition at 100 µg/mL worked out at 28.6%.
Take `COc1ccc(OC(=O)N2CCCC2=O)cc1` [Compound No. 4, 1-(4'-Methoxyphenoxycarbonyl)-2-pyrrolidinone]: the inhibition at 10 µg/mL is 51.1%, the inhibition at 25 µg/mL was found to be 72.5%, the inhibition at 50 µg/mL amounted to 95.5% and the inhibition at 100 µg/mL is 98.2%.
For the compound `Cc1ccccc1OC(=O)N1CCCC1=O` [Compound No. 5, 1-(2'-Methylphenoxycarbonyl)-2-pyrrolidinone], the inhibition at 10 µg/mL was found to be 5%, the inhibition at 25 µg/mL worked out at 35.8%, the inhibition at 50 µg/mL amounted to 50.6% and the inhibition at 100 µg/mL was determined as 92.3%.
For the compound `Cc1cccc(OC(=O)N2CCCC2=O)c1` [Compound No. 6, 1-(3'-Methylphenoxycarbonyl)-2-pyrrolidinone], the inhibition at 50 µg/mL was 4.7% and the inhibition at 100 µg/mL amounted to 39.7%.
As for `Cc1ccc(OC(=O)N2CCCC2=O)cc1` [Compound No. 7, 1-(4'-Methylphenoxycarbonyl)-2-pyrrolidinone], the inhibition at 10 µg/mL worked out at 5.8%, the inhibition at 25 µg/mL came out at 31%, the inhibition at 50 µg/mL came to 70.6% and the inhibition at 100 µg/mL was 97.7%.
As for `COc1cccc(OC)c1OC(=O)N1CCCC1=O` [Compound No. 18, 1-(2',6'-Dimethoxyphenoxycarbonyl)-2-pyrrolidinone], the inhibition at 10 µg/mL was 26%, the inhibition at 25 µg/mL stood at 64.8%, the inhibition at 50 µg/mL was 90.9% and the inhibition at 100 µg/mL amounted to 96.4%.
